Results taken from article PMC7449217, “The FDA-Approved Drug Nelfinavir Inhibits Lytic Cell-Free but Not Cell-Associated Nonlytic Transmission of Human Adenovirus” (Antimicrobial Agents and Chemotherapy, 2020).
Counter-ions that a name gives are not always drawn. Like-named read-outs stand apart in the source and are kept apart here.

Tests used:
[1] = tested on: HSV-1-CMV-GFP; assay: fluorescence-based plaque-forming assay, A549 cells; type: cell-based, herpes simplex virus 1
Experimental: (§1) Per 96-well plate, 15,000 A549 cells, 10,000 HeLa cells, 30,000 HBECs, 30,000 HCE cells, or 30,000 CMT-93 cells were seeded in 100 μl of the respective supplemented medium and allowed to settle for 1 h at room temperature (RT) prior to cell culture incubation at 37°C with 5% CO2 and 95% humidity. The following day, the medium was replaced with 50 μl of the respective virus stock dilution giving rise to 5 to 50 plaques per 96-well plate. Fifty microliters of nelfinavir to obtain a 0.1 to 50 μM final concentration or the DMSO solvent control was also added, both in supplemented medium. For each experiment, a noninfected, treated control was performed. […] Plates were imaged on either an IXM-XL or an IXM-C automated high-throughput fluorescence microscope (Molecular Devices, San Jose, CA, USA) using a 4× objective in wide-field mode. Hoechst staining was recorded in the 4′,6-diamidino-2-phenylindole (DAPI) channel, the fluorescein isothiocyanate (FITC)/GFP channel was acquired for viral GFP, and the tetramethyl rhodamine isothiocyanate (TRITC)/Texas Red channel was acquired for hexon immunofluorescence staining.
(§2) The infection phenotype for each well was quantified using Plaque2.0 ([101]). The number of plaques was determined based on the infection signal (viral GFP or hexon immunofluorescence staining). […] The mean TI50 was calculated as the EC50/TC50 ratio of the means. […]

[2] = tested on: HAdV-C6; assay: as above; type: cell-based, human adenovirus
Experimental: (§3) Per 96-well plate, 15,000 A549 cells, 10,000 HeLa cells, 30,000 HBECs, 30,000 HCE cells, or 30,000 CMT-93 cells were seeded in 100 μl of the respective supplemented medium and allowed to settle for 1 h at room temperature (RT) prior to cell culture incubation at 37°C with 5% CO2 and 95% humidity. The following day, the medium was replaced with 50 μl of the respective virus stock dilution giving rise to 5 to 50 plaques per 96-well plate. Fifty microliters of nelfinavir to obtain a 0.1 to 50 μM final concentration or the DMSO solvent control was also added, both in supplemented medium. For each experiment, a noninfected, treated control was performed. For uphill plaque assays, the medium volume was increased to 150 μl with identical virus and drug concentrations. For wash-in/washout experiments, the virus was incubated on cells in supplemented medium for 1 h at 37°C, cells were washed with PBS, and a 100-μl drug dilution in supplemented medium was added. All experiments were performed in four technical replicates or as indicated. Cells were incubated under standard cell culture conditions. At the indicated times postinfection, the cells were fixed, and the nuclei were stained for 1 h at RT by the addition of 33 μl 16% (wt/vol) paraformaldehyde (PFA) and 4 μg/ml Hoechst 33342 (Sigma-Aldrich, St. Louis, MO, USA) in PBS. Cells were washed three times with PBS and stored in PBS supplemented with 0.02% N3 for infections with viruses harboring a GFP transgene. For wild-type (wt) viruses, cells were quenched in PBS supplemented with 50 mM NH4Cl, permeabilized using 0.2% (vol/vol) Triton X-100 in PBS, and blocked with 0.5% (wt/vol) bovine serum albumin (BSA) in PBS. Cells were incubated with 381.7 ng/ml mouse anti-HAdV hexon protein antibody (Mab8052; Sigma-Aldrich, St. Louis, MO, USA) and subsequently stained using 2 μg/ml goat anti-mouse-Alexa Fluor 594 (catalog number A21203 or A32742; Thermo Fisher Scientific, Waltham, MA, USA). Plates were imaged on either an IXM-XL or an IXM-C automated high-throughput fluorescence microscope (Molecular Devices, San Jose, CA, USA) using a 4× objective in wide-field mode. Hoechst staining was recorded in the 4′,6-diamidino-2-phenylindole (DAPI) channel, the fluorescein isothiocyanate (FITC)/GFP channel was acquired for viral GFP, and the tetramethyl rhodamine isothiocyanate (TRITC)/Texas Red channel was acquired for hexon immunofluorescence staining.
(§4) The infection phenotype for each well was quantified using Plaque2.0 ([101]). The number of plaques was determined based on the infection signal (viral GFP or hexon immunofluorescence staining). Nuclei stained with Hoechst were segmented by using CellProfiler ([178]). Infected nuclei were classified based on the median infection signal per nucleus in CellProfiler. Data were plotted, and the EC50 (infected and treated cells), the TC50 (noninfected, treated cells), as well as the corresponding standard errors (SE) were determined using curve fitting in GraphPad (version 8.1.2; GraphPad Software, Inc.) using three-parameter inhibitor concentration-versus-response nonlinear regression. The mean TI50 was calculated as the […] ratio of the means. The TI50 SE was calculated by error propagation.

[3] = tested on: HAdV-D30; assay: as above; type: cell-based, human adenovirus
Experimental: as §3, §4

[4] = tested on: HAdV-C2-dE3B-GFP; design: method as in earlier work; details: A549, 1.25 μM compound, normalized to neg. ctr., cited from earlier work
[5] = tested on: HBEC; type: cell-based; details: human
Experimental: as §3, §4

[6] = tested on: HCE cells; type: cell-based; details: human
Experimental: as §3, §4

[7] = tested on: HeLa cells; type: cell-based; details: human
Experimental: as §3, §4

[8] = tested on: HAdV-A31; assay: fluorescence-based plaque-forming assay, HCE cells; type: cell-based, human adenovirus; details: HAdV-A31 in HCE
Experimental: as §3, with “Cells were incubated with 381.7 ng/ml mouse anti-HAdV hexon protein antibody (Mab8052; Sigma-Aldrich, St. Louis, MO, USA) and subsequently stained using 2 μg/ml goat anti-mouse-Alexa Fluor 594 (catalog number A21203 or A32742; Thermo Fisher Scientific, Waltham, MA, USA).” left out
as §4, with “Nuclei stained with Hoechst were segmented by using CellProfiler ([178]). Infected nuclei were classified based on the median infection signal per nucleus in CellProfiler.” left out

[9] = tested on: HAdV-C2-dE3B-GFP; assay: fluorescence-based plaque-forming assay, HCE cells; type: cell-based, human adenovirus
Experimental: as §3, with “Cells were incubated with 381.7 ng/ml mouse anti-HAdV hexon protein antibody (Mab8052; Sigma-Aldrich, St. Louis, MO, USA) and subsequently stained using 2 μg/ml goat anti-mouse-Alexa Fluor 594 (catalog number A21203 or A32742; Thermo Fisher Scientific, Waltham, MA, USA).” left out
as §4, with “Nuclei stained with Hoechst were segmented by using CellProfiler ([178]). Infected nuclei were classified based on the median infection signal per nucleus in CellProfiler.” left out

[10] = tested on: MAdV-3-pIX-FS2A-GFP; assay: fluorescence-based plaque-forming assay, CMT-93 cells; type: cell-based, mouse adenovirus
Experimental: as §1, §2

## Cc1c(O)cccc1C(=O)N[C@@H](CSc1ccccc1)[C@H](O)CN1C[C@H]2CCCC[C@H]2C[C@H]1C(=O)NC(C)(C)C [Nelfinavir, Nelfinavir mesylate]
[1]; HSV-1-CMV-GFP in A549, 1 dpi, GFP
  TI50 (TC50/IC50): 17.25
[1]; Human alphaherpesvirus 1, A549
  EC50: 2.87 µM
[2]; HAdV-C6 in A549, 3 dpi, Hexon
  TI50 (TC50/IC50): 35.14
[2]; Human adenovirus sp., HAdV-C6 in A549, fixation 3 dpi, read-out Hexon, plaque numbers
  EC50: 0.6 µM
[3]; HAdV-D30 in A549, 5 dpi, Hexon
  TI50 (TC50/IC50): 3.18
[3]; Human adenovirus sp., HAdV-D30 in A549, fixation 5 dpi, read-out Hexon, plaque numbers
  EC50: 4.2 µM
[4]; analysis EPFL
  Normalized mean read-outs: Infected nuclei: 0.20
  Normalized mean read-outs: Infection index: 0.27
  Normalized mean read-outs: Nuclei: 0.74
  Normalized mean read-outs: Plaques: 0.00
  Normalized mean read-outs: Virus intensity: 0.33 AU
[4]; analysis UZH
  Normalized mean read-outs: Infected nuclei: 0.20
  Normalized mean read-outs: Infection index: 0.23
  Normalized mean read-outs: Nuclei: 0.85
  Normalized mean read-outs: Plaques: 0.0274
  Normalized mean read-outs: Virus intensity: 0.30 AU
[5]; 6 days
  TC50: 13.33 µM
[5]; 8 days
  TC50: 12.74 µM
[6]; 5 days
  TC50: 29.73 µM
[6]; 8 days
  TC50: 19.59 µM
[7]; 4 days
  TC50: 29.85 µM
[7]; 5 days
  TC50: 41.69 µM
[8]; 8 dpi, Hexon
  TI50 (TC50/IC50): 1.08
[8]; Human adenovirus sp., fixation 8 dpi, read-out Hexon, plaque numbers
  EC50: 18.1 µM
[9]; HAdV-C2-dE3B-GFP in HCE, 5 dpi, GFP
  TI50 (TC50/IC50): 54.04
[9]; Human adenovirus sp., HCE
  EC50: 0.55 µM
[10]; MAdV-3-pIX-FS2A-GFP in CMT-93, 4 dpi, GFP
  TI50 (TC50/IC50): 3.00
[10]; Murine mastadenovirus A, CMT93
  EC50: 8.7 µM
